From publication PMC5048545 (Journal of molecular biology, 2016) come the findings set out here.

What is called pKd is the negative decadic logarithm of the Kd, by convention in mol/L. The low end stands for a high Kd, the high end for a low Kd.

pKd: −log10 of the molar value.

In experiment [1] the target is T1, carboxysome-associated PII protein (CPII) (Thiomonas intermedia, UniProt D5X329). The experiment can be described thus: crystal structures. It counts as binding.
Experiment [2] addresses T1, carboxysome-associated PII protein (CPII).

`Nc1ncnc2c1ncn2[C@@H]1O[C@H](COP(=O)(O)O)[C@@H](O)[C@H]1O` [AMP]: the pKd in experiment [1] is 2.74.

Regarding `O=C(O)O` [bicarbonate], the “crystal structure; EPR titration” value in experiment [2] was “Bicarbonate molecules bind in nooks formed by Gly-101 and Arg-102, which immediately precede the C-loop α-helix”.
